Our source for the IC50 values is patent US9546164B2 (GENENTECH, INC., priority 2013, dated 2017).

Structures are written as SMILES. Structures can show the parent of a compound that is named as a salt.

One assay deals with hNav1.7 (Homo sapiens (Human), UniProt Q15858). In words: Tritiated sulfonamide competitive binding to membranes from cells expressing hNav1.7 and the β1 subunit.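 Also: Filter-bound radioactivity counted by liquid scintillation, nonspecific binding defined with excess unlabelled ligand, IC50 fitted to percent inhibition of specific binding.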
Sequence of hNav1.7 (Q15858 other isoform, or with tags, fused parts or gaps): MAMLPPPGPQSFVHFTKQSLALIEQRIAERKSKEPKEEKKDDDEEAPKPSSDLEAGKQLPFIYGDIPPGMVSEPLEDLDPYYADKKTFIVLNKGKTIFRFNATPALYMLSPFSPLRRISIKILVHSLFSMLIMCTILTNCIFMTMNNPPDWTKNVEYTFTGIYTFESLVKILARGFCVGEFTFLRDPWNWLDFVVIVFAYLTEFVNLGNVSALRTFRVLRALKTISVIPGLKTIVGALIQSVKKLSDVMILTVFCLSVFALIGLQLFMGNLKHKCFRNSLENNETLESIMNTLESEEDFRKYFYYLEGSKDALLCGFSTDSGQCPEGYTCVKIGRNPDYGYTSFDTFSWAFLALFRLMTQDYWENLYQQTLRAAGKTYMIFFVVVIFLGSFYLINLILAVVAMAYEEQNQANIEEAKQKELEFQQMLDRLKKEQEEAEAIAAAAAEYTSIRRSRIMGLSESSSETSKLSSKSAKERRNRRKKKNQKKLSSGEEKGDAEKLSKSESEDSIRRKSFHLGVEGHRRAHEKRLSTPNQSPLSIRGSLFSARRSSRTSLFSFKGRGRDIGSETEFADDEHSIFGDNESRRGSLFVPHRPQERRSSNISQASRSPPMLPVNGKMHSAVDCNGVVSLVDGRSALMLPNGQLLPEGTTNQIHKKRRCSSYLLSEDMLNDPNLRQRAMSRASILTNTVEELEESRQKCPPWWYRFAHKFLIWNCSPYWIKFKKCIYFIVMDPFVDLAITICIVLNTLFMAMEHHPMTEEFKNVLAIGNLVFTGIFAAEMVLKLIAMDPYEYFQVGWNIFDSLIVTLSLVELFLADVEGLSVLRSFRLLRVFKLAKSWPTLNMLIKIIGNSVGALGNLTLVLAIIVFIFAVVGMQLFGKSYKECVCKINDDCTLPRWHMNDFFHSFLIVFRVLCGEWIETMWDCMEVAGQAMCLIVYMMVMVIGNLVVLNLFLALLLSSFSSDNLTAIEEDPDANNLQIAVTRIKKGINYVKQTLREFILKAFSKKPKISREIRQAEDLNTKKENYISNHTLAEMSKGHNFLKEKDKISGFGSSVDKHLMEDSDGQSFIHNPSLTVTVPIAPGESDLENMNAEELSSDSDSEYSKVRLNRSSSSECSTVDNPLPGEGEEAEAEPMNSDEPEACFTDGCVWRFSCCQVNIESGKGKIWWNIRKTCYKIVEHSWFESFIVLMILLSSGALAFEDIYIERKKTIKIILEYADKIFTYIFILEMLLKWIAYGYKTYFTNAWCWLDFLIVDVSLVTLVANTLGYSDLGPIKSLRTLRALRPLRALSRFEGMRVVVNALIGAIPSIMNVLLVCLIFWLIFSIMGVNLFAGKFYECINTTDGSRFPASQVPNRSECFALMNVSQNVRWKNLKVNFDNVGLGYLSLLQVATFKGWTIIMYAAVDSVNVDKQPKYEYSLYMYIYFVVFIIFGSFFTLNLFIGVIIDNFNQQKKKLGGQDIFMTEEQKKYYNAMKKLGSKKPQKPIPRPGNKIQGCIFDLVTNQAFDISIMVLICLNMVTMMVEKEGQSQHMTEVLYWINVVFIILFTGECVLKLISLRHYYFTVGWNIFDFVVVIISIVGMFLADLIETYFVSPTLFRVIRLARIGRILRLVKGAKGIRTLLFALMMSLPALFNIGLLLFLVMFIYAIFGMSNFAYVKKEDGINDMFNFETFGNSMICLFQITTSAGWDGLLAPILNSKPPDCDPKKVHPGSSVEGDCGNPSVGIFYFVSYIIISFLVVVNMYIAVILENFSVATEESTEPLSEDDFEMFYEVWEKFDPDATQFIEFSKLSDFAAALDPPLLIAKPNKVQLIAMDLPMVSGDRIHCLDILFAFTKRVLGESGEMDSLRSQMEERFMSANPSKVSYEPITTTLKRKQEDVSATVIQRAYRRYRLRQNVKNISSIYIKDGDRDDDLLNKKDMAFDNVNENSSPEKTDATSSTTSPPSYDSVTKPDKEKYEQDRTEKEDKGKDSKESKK
Sequence of hNav1.7 (Q07699 19-218 partner): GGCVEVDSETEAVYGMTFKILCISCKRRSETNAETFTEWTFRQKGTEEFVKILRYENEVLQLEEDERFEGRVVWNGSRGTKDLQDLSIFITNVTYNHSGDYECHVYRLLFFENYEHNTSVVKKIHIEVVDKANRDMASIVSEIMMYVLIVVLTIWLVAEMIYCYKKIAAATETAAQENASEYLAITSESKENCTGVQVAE
Settings: not given
As for `C[C@@H]1CN(Cc2cc(F)c(C(=O)NS(=O)(=O)C3CC3)cc2C2CC2)CCN1[C@@H](C)c1cc(Cl)cc(Cl)c1` [Example 572, 5-cyclopropyl-N-(cyclopropylsulfonyl)-4-(((R)-4-((S)-1-(3,5-dichlorophenyl)ethyl)-3-methylpiperazin-1-yl)methyl)-2-fluorobenzamide], the IC50 amounted to 21.6 nM.

As to `C[C@@H]1CN(Cc2cc(F)c(C(=O)NS(C)(=O)=O)cc2C2CC2)CCN1[C@@H](C)c1cc(Cl)cc(Cl)c1` [Example 571, 5-cyclopropyl-4-(((R)-4-((S)-1-(3,5-dichlorophenyl)ethyl)-3-methylpiperazin-1-yl)methyl)-2-fluoro-N-(methylsulfonyl)benzamide], the IC50 is 44.3 nM.

The same assay, now with this note: read-out: Ligand Binding Assay; 100 pM [3H]compound, membranes with hNav1.7 and β1 subunit, 18 h, room temperature.
Consider `CCS(=O)(=O)NC(=O)c1cc(C2CC2)c(OCC2(C)CN([C@@H](C)c3cc(Cl)cc(Cl)c3)C2)cc1F` (single isomer, unassigned) [Example 289], for which the IC50 is 3.5 nM.

`CC1(COc2cc(F)c(C(=O)NS(=O)(=O)C3CC3)cc2C2CC2)CN(c2cc(Cl)ncc2C(F)(F)F)C1` [Example 487, 4-((1-(2-chloro-5-(trifluoromethyl)pyridin-4-yl)-3-methylazetidin-3-yl)methoxy)-5-cyclopropyl-N-(cyclopropylsulfonyl)-2-fluorobenzamide, trifluoroacetic acid salt]: the IC50 turned out to be 13.5 nM.

As for `CC1(COc2cc(F)c(C(=O)NS(=O)(=O)C3CC3)cc2C2CC2)CN(C(c2ccccc2)c2ccccc2)C1` [Example 70, 4-((1-benzhydryl-3-methylazetidin-3-yl)methoxy)-5-cyclopropyl-N-(cyclopropylsulfonyl)-2-fluorobenzamide], the IC50 came out at 6 nM.

Take `O=C(NS(=O)(=O)N1CCC1)c1cc(C2CC2)c(OCC2CCN(CCC(F)(F)F)CC2)cc1F` [Example 194, N-(azetidin-1-ylsulfonyl)-5-cyclopropyl-2-fluoro-4-((1-(3,3,3-trifluoropropyl)piperidin-4-yl)methoxy)benzamide]: the IC50 stood at 180 nM.

Consider `CS(=O)(=O)NC(=O)c1cc(C2CC2)c(OCC2CCN(C(c3cccc(Cl)c3)c3cccc(Cl)c3)CC2)cc1F` [Example 352, 4-((1-(bis(3-chlorophenyl)methyl)piperidin-4-yl)methoxy)-5-cyclopropyl-2-fluoro-N-(methylsulfonyl)benzamide, trifluoroacetic acid salt], for which the IC50 was found to be 2 nM.

In the case of `Cc1cc(C(=O)NS(=O)(=O)C2CC2)c(F)cc1OCC1CCN([C@@H](C)c2cc(Cl)cc(Cl)c2)CC1` [Example 359, (S)—N-(cyclopropylsulfonyl)-4-((1-(1-(3,5-dichlorophenyl)ethyl)piperidin-4-yl)methoxy)-2-fluoro-5-methylbenzamide trifluoroacetic acid salt], the IC50 stood at 11.4 nM.

In the case of `CS(=O)(=O)NC(=O)c1cc(C2CC2)c(OCC2CN(C(c3ccccc3)c3cccc(F)c3)C2)cc1F` (stereo not drawn) [Example 154, 5-Cyclopropyl-2-fluoro-4-((1-((3-fluorophenyl)(phenyl)methyl)azetidin-3-yl)methoxy)-N-(methylsulfonyl)benzamide], the IC50 was determined as 9.12 nM.

With `COC[C@H](c1ccc(F)c(Cl)c1)N1CCC(COc2cc(F)c(C(=O)NS(C)(=O)=O)cc2C2CC2)CC1` (single isomer, unassigned) [Example 182], the IC50 turned out to be 14 nM.

Consider `O=C(NS(=O)(=O)C1CC1)c1cc(C2CC2)c(OCC2CCN(S(=O)(=O)c3cccc(C(F)(F)F)c3)CC2)cc1F` [Example 375, 5-cyclopropyl-N-(cyclopropylsulfonyl)-2-fluoro-4-((1-((3-(trifluoromethyl)phenyl)sulfonyl)piperidin-4-yl)methoxy)benzamide], for which the IC50 is 14.6 nM.

Regarding `C[C@H](c1ccccc1)N1CC(COc2cc(F)c(C(=O)NS(C)(=O)=O)cc2C2CC2)C1` [Example 85, (R)-5-Cyclopropyl-2-fluoro-N-(methylsulfonyl)-4-((1-(1-phenylethyl)azetidin-3-yl)methoxy)benzamide], the IC50 came out at 1860 nM.

Regarding `CS(=O)(=O)NC(=O)c1cc(C2CC2)c(O[C@@H]2CCCN(Cc3cccc(C(F)(F)F)c3)C2)cc1F` [Example 319, (R)-5-cyclopropyl-2-fluoro-N-(methylsulfonyl)-4-((1-(3-(trifluoromethyl)benzyl)piperidin-3-yl)oxy)benzamide], the IC50 was 5.4 nM.

As for `CS(=O)(=O)NC(=O)c1cc(C2CC2)c(O[C@H]2CN(Cc3ccc(F)cc3Cl)CC(F)(F)C2)cc1F` [Example 445, (R)-4-((1-(2-chloro-4-fluorobenzyl)-5,5-difluoropiperidin-3-yl)oxy)-5-cyclopropyl-2-fluoro-N-(methylsulfonyl)benzamide], the IC50 was found to be 6.1 nM.

Regarding `CS(=O)(=O)NC(=O)c1cc(C2CC2)c(O[C@@H]2CCCN(c3ccc(C(F)(F)F)cn3)C2)cc1F` [Example 490, (R)-5-cyclopropyl-2-fluoro-N-(methylsulfonyl)-4-((1-(5-trifluoromethyl)pyridin-2-yl)piperidin-3-yl)oxy)benzamide, trifluoroacetic acid salt], the IC50 came out at 42.3 nM.

For the compound `CC(C)Oc1ncc([C@@H](c2ccccc2)N2CC(COc3cc(F)c(C(=O)NS(C)(=O)=O)cc3C3CC3)C2)cc1Cl` [Example 115, (R)-4-((1-((5-Chloro-6-isopropoxypyridin-3-yl)(phenyl)methyl)azetidin-3-yl)methoxy)-5-cyclopropyl-2-fluoro-N-(methylsulfonyl)benzamide], the IC50 was found to be 4.2 nM.

`CS(=O)(=O)NC(=O)c1cc(C2CC2)c(OCC2CN(S(=O)(=O)c3ccccc3)C2)cc1F` [Example 129, 5-Cyclopropyl-2-fluoro-N-(methylsulfonyl)-4-((1-(phenylsulfonyl)-azetidin-3-yl)methoxy)benzamide]: the IC50 was 1370 nM.

On to `O=C(NS(=O)(=O)C1CC1)c1cc(C2CC2)c(O[C@@H]2CCCN(c3ccc(F)cn3)C2)cc1F` [Example 494, (R)-5-cyclopropyl-N-(cyclopropylsulfonyl)-2-fluoro-4-((1-(5-fluoropyridin-2-yl)piperidin-3-yl)oxy)benzamide, trifluoroacetic acid salt], for which the IC50 was 52.7 nM.

As for `C[C@H](c1cc(F)cc(C(F)(F)F)c1)N1CCC(C)(COc2cc(F)c(C(=O)NS(C)(=O)=O)cc2C2CC2)CC1` [Example 170, (R)-5-cyclopropyl-2-fluoro-4-((1-(1-(3-fluoro-5-(trifluoromethyl)phenyl)ethyl)-4-methylpiperidin-4-yl)methoxy)-N-(methylsulfonyl)benzamide], the IC50 is 5 nM.

With `COc1ccc(CN2CCC[C@@H](Oc3cc(F)c(C(=O)NS(C)(=O)=O)cc3C3CC3)C2)cc1OC` [Example 430, (R)-5-cyclopropyl-4-((1-(3,4-dimethoxybenzyl)piperidin-3-yl)oxy)-2-fluoro-N-(methylsulfonyl)benzamide, trifluoroacetic acid salt], the IC50 came out at 533 nM.

On to `CS(=O)(=O)NC(=O)c1cc(C2CC2)c(OCC2CN([C@@H](c3ccccc3)c3ccccc3F)C2)cc1F` [Example 124, (S)-5-Cyclopropyl-2-fluoro-4-((1-((2-fluorophenyl)(phenyl)methyl)azetidin-3-yl)methoxy)-N-(methylsulfonyl)benzamide], for which the IC50 is 71.3 nM.
